US9518018B2, “3-alkoxy, thioalkyl and amino-4-amino-6-(substituted)picolinates and their use as herbicides” (Dow AgroSciences LLC, priority 2011, dated 2016)

system: ABUTH: velvetleaf (Abutilon theophrasti); test: Post-Emergent Test I herbicidal activity; format: in vivo; details: Abutilon theophrasti, post-emergence, 336 h, Table 3, 70 g ai/ha, read-out: Visual Growth Reduction (%)-14 Days after Application ABUTH
Method in brief: (§1)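 Post-emergence foliar application to young greenhouse plants at 187 L/ha, five rates down to 1/16× of the top rate. Percent injury is assessed visually two weeks later against untreated plants.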

Compound | pest or weed control at 70 g/ha
COC(=O)c1nc(-c2cc(F)c(Br)cc2F)c(F)c(N)c1OC [Compound 20] | 85%
COc1c(C(=O)O)nc(-c2cc(F)c(Cl)cc2F)c(F)c1N [Compound 57] | 85%
COc1ccc(-c2nc(C(=O)O)c(OC)c(N)c2F)cn1 [Compound 78, 4-amino-3-fluoro-5,6′-dimethoxy-[2,3′-bipyridine]-6-carboxylic acid] | 80%
COc1c(C(=O)O)nc(-c2ccc(Cl)c(Cl)c2)c(F)c1N [Compound 79] | 80%
COC(=O)c1nc(-c2ccc(Br)c(F)c2)c(F)c(N)c1OC [Compound 21] | 85%

same assay, conditions: Abutilon theophrasti, post-emergence, 336 h, Table 3, 140 g ai/ha, read-out: Visual Growth Reduction (%)-14 Days after Application ABUTH

Compound | pest or weed control at 140 g/ha
COC(=O)c1nc(-c2ccc3c(c2)OCO3)c(F)c(N)c1OC [Compound 37] | 55%
COc1c(C(=O)O)nc(-c2ccc3c(c2)OCO3)c(F)c1N [Compound 53] | 80%
COc1c(C(=O)O)nc(-c2ccc(C(F)(F)F)c(F)c2F)c(F)c1N [Compound 56] | 80%
COC(=O)c1nc(-c2ccc(Cl)c(OC)c2F)c(F)c(N)c1SC [Compound 94, Methyl 4-amino-6-(4-chloro-2-fluoro-3-methoxyphenyl)-5-fluoro-3-(methylthio)picolinate] | 60%

system: CHEAL: lambsquarters (Chenopodium album); test: Post-Emergent Test I herbicidal activity; format: in vivo; details: Chenopodium album, post-emergence, 336 h, Table 3, 70 g ai/ha, read-out: Visual Growth Reduction (%)-14 Days after Application CHEAL
Method in brief: as §1

Compound | pest or weed control at 70 g/ha
COC(=O)c1nc(-c2cc(F)c(Br)cc2F)c(F)c(N)c1OC [Compound 20] | 100%
COc1c(C(=O)O)nc(-c2cc(F)c(Cl)cc2F)c(F)c1N [Compound 57] | 100%
COc1ccc(-c2nc(C(=O)O)c(OC)c(N)c2F)cn1 [Compound 78, 4-amino-3-fluoro-5,6′-dimethoxy-[2,3′-bipyridine]-6-carboxylic acid] | 97%
COc1c(C(=O)O)nc(-c2ccc(Cl)c(Cl)c2)c(F)c1N [Compound 79] | 100%
COC(=O)c1nc(-c2ccc(Br)c(F)c2)c(F)c(N)c1OC [Compound 21] | 100%

same assay, conditions: Chenopodium album, post-emergence, 336 h, Table 3, 140 g ai/ha, read-out: Visual Growth Reduction (%)-14 Days after Application CHEAL

Compound | pest or weed control at 140 g/ha
COC(=O)c1nc(-c2ccc3c(c2)OCO3)c(F)c(N)c1OC [Compound 37] | 100%
COc1c(C(=O)O)nc(-c2ccc3c(c2)OCO3)c(F)c1N [Compound 53] | 100%
COc1c(C(=O)O)nc(-c2ccc(C(F)(F)F)c(F)c2F)c(F)c1N [Compound 56] | 90%
COC(=O)c1nc(-c2ccc(Cl)c(OC)c2F)c(F)c(N)c1SC [Compound 94, Methyl 4-amino-6-(4-chloro-2-fluoro-3-methoxyphenyl)-5-fluoro-3-(methylthio)picolinate] | 85%

system: EPHHL: wild poinsettia (Euphorbia heterophylla); test: Post-Emergent Test I herbicidal activity; format: in vivo; details: post-emergence, 336 h, Table 3, 70 g ai/ha, read-out: Visual Growth Reduction (%)-14 Days after Application EPHHL
Method in brief: as §1

Compound | pest or weed control at 70 g/ha
COC(=O)c1nc(-c2cc(F)c(Br)cc2F)c(F)c(N)c1OC [Compound 20] | 100%
COc1c(C(=O)O)nc(-c2cc(F)c(Cl)cc2F)c(F)c1N [Compound 57] | 100%
COc1ccc(-c2nc(C(=O)O)c(OC)c(N)c2F)cn1 [Compound 78, 4-amino-3-fluoro-5,6′-dimethoxy-[2,3′-bipyridine]-6-carboxylic acid] | 80%
COc1c(C(=O)O)nc(-c2ccc(Cl)c(Cl)c2)c(F)c1N [Compound 79] | 95%
COC(=O)c1nc(-c2ccc(Br)c(F)c2)c(F)c(N)c1OC [Compound 21] | 100%

same assay, conditions: post-emergence, 336 h, Table 3, 140 g ai/ha, read-out: Visual Growth Reduction (%)-14 Days after Application EPHHL

Compound | pest or weed control at 140 g/ha
COC(=O)c1nc(-c2ccc3c(c2)OCO3)c(F)c(N)c1OC [Compound 37] | 100%
COc1c(C(=O)O)nc(-c2ccc3c(c2)OCO3)c(F)c1N [Compound 53] | 0%
COc1c(C(=O)O)nc(-c2ccc(C(F)(F)F)c(F)c2F)c(F)c1N [Compound 56] | 100%
COC(=O)c1nc(-c2ccc(Cl)c(OC)c2F)c(F)c(N)c1SC [Compound 94, Methyl 4-amino-6-(4-chloro-2-fluoro-3-methoxyphenyl)-5-fluoro-3-(methylthio)picolinate] | 65%

system: CYPES: yellow nutsedge (Cyperus esculentus); test: Post-Emergent Test I herbicidal activity; format: in vivo; details: post-emergence, 336 h, Table 3, 70 g ai/ha, read-out: Visual Growth Reduction (%)-14 Days after Application CYPES
Method in brief: as §1

Compound | pest or weed control at 70 g/ha
COC(=O)c1nc(-c2cc(F)c(Br)cc2F)c(F)c(N)c1OC [Compound 20] | 50%
COc1c(C(=O)O)nc(-c2cc(F)c(Cl)cc2F)c(F)c1N [Compound 57] | 70%
COc1ccc(-c2nc(C(=O)O)c(OC)c(N)c2F)cn1 [Compound 78, 4-amino-3-fluoro-5,6′-dimethoxy-[2,3′-bipyridine]-6-carboxylic acid] | 80%
COc1c(C(=O)O)nc(-c2ccc(Cl)c(Cl)c2)c(F)c1N [Compound 79] | 90%
COC(=O)c1nc(-c2ccc(Br)c(F)c2)c(F)c(N)c1OC [Compound 21] | 70%

same assay, conditions: post-emergence, 336 h, Table 3, 140 g ai/ha, read-out: Visual Growth Reduction (%)-14 Days after Application CYPES

Compound | pest or weed control at 140 g/ha
COC(=O)c1nc(-c2ccc3c(c2)OCO3)c(F)c(N)c1OC [Compound 37] | 100%
COc1c(C(=O)O)nc(-c2ccc3c(c2)OCO3)c(F)c1N [Compound 53] | 100%
COc1c(C(=O)O)nc(-c2ccc(C(F)(F)F)c(F)c2F)c(F)c1N [Compound 56] | 50%
COC(=O)c1nc(-c2ccc(Cl)c(OC)c2F)c(F)c(N)c1SC [Compound 94, Methyl 4-amino-6-(4-chloro-2-fluoro-3-methoxyphenyl)-5-fluoro-3-(methylthio)picolinate] | 0%

system: ZEAMX: corn (Zea mays); test: Post-Emergent Test I herbicidal activity; format: in vivo; details: Zea mays, post-emergence, 336 h, Table 3, 70 g ai/ha, read-out: Visual Growth Reduction (%)-14 Days after Application ZEAMX
Method in brief: as §1

Compound | pest or weed control at 70 g/ha
COC(=O)c1nc(-c2cc(F)c(Br)cc2F)c(F)c(N)c1OC [Compound 20] | 80%
COc1c(C(=O)O)nc(-c2cc(F)c(Cl)cc2F)c(F)c1N [Compound 57] | 75%
COc1ccc(-c2nc(C(=O)O)c(OC)c(N)c2F)cn1 [Compound 78, 4-amino-3-fluoro-5,6′-dimethoxy-[2,3′-bipyridine]-6-carboxylic acid] | 80%
COc1c(C(=O)O)nc(-c2ccc(Cl)c(Cl)c2)c(F)c1N [Compound 79] | 80%
COC(=O)c1nc(-c2ccc(Br)c(F)c2)c(F)c(N)c1OC [Compound 21] | 50%

same assay, conditions: Zea mays, post-emergence, 336 h, Table 3, 140 g ai/ha, read-out: Visual Growth Reduction (%)-14 Days after Application ZEAMX

Compound | pest or weed control at 140 g/ha
COC(=O)c1nc(-c2ccc3c(c2)OCO3)c(F)c(N)c1OC [Compound 37] | 75%
COc1c(C(=O)O)nc(-c2ccc3c(c2)OCO3)c(F)c1N [Compound 53] | 75%
COc1c(C(=O)O)nc(-c2ccc(C(F)(F)F)c(F)c2F)c(F)c1N [Compound 56] | 75%
COC(=O)c1nc(-c2ccc(Cl)c(OC)c2F)c(F)c(N)c1SC [Compound 94, Methyl 4-amino-6-(4-chloro-2-fluoro-3-methoxyphenyl)-5-fluoro-3-(methylthio)picolinate] | 0%

system: ECHCG: barnyardgrass (Echinochloa crus-galli); test: Post-Emergent Test I herbicidal activity; format: in vivo; details: post-emergence, 336 h, Table 3, 70 g ai/ha, read-out: Visual Growth Reduction (%)-14 Days after Application ECHCG
Method in brief: as §1

Compound | pest or weed control at 70 g/ha
COC(=O)c1nc(-c2cc(F)c(Br)cc2F)c(F)c(N)c1OC [Compound 20] | 80%
COc1c(C(=O)O)nc(-c2cc(F)c(Cl)cc2F)c(F)c1N [Compound 57] | 90%
COc1ccc(-c2nc(C(=O)O)c(OC)c(N)c2F)cn1 [Compound 78, 4-amino-3-fluoro-5,6′-dimethoxy-[2,3′-bipyridine]-6-carboxylic acid] | 85%
COc1c(C(=O)O)nc(-c2ccc(Cl)c(Cl)c2)c(F)c1N [Compound 79] | 70%
COC(=O)c1nc(-c2ccc(Br)c(F)c2)c(F)c(N)c1OC [Compound 21] | 50%

same assay, conditions: post-emergence, 336 h, Table 3, 140 g ai/ha, read-out: Visual Growth Reduction (%)-14 Days after Application ECHCG

Compound | pest or weed control at 140 g/ha
COC(=O)c1nc(-c2ccc3c(c2)OCO3)c(F)c(N)c1OC [Compound 37] | 100%
COc1c(C(=O)O)nc(-c2ccc3c(c2)OCO3)c(F)c1N [Compound 53] | 80%
COc1c(C(=O)O)nc(-c2ccc(C(F)(F)F)c(F)c2F)c(F)c1N [Compound 56] | 100%
COC(=O)c1nc(-c2ccc(Cl)c(OC)c2F)c(F)c(N)c1SC [Compound 94, Methyl 4-amino-6-(4-chloro-2-fluoro-3-methoxyphenyl)-5-fluoro-3-(methylthio)picolinate] | 0%

system: ORYSA: rice (Oryza sativa); test: Post-Emergent Test I herbicidal activity; format: in vivo; details: post-emergence, 336 h, Table 3, 70 g ai/ha, read-out: Visual Growth Reduction (%)-14 Days after Application ORYSA
Method in brief: as §1

Compound | pest or weed control at 70 g/ha
COC(=O)c1nc(-c2cc(F)c(Br)cc2F)c(F)c(N)c1OC [Compound 20] | 0%
COc1c(C(=O)O)nc(-c2cc(F)c(Cl)cc2F)c(F)c1N [Compound 57] | 0%
COc1ccc(-c2nc(C(=O)O)c(OC)c(N)c2F)cn1 [Compound 78, 4-amino-3-fluoro-5,6′-dimethoxy-[2,3′-bipyridine]-6-carboxylic acid] | 50%
COc1c(C(=O)O)nc(-c2ccc(Cl)c(Cl)c2)c(F)c1N [Compound 79] | 15%
COC(=O)c1nc(-c2ccc(Br)c(F)c2)c(F)c(N)c1OC [Compound 21] | 0%

same assay, conditions: post-emergence, 336 h, Table 3, 140 g ai/ha, read-out: Visual Growth Reduction (%)-14 Days after Application ORYSA

Compound | pest or weed control at 140 g/ha
COC(=O)c1nc(-c2ccc3c(c2)OCO3)c(F)c(N)c1OC [Compound 37] | 0%
COc1c(C(=O)O)nc(-c2ccc3c(c2)OCO3)c(F)c1N [Compound 53] | 15%
COc1c(C(=O)O)nc(-c2ccc(C(F)(F)F)c(F)c2F)c(F)c1N [Compound 56] | 10%
COC(=O)c1nc(-c2ccc(Cl)c(OC)c2F)c(F)c(N)c1SC [Compound 94, Methyl 4-amino-6-(4-chloro-2-fluoro-3-methoxyphenyl)-5-fluoro-3-(methylthio)picolinate] | 0%

system: not given; test: not given; details: not given

Compound | melting point
COC(=O)c1nc(-c2ccc3c(c2)OCO3)c(F)c(N)c1OC [Compound 37] | 110 to 112 °C
COC(=O)c1nc(-c2cc(F)c(Br)cc2F)c(F)c(N)c1OC [Compound 20] | 116 to 118 °C
COc1c(C(=O)O)nc(-c2ccc3c(c2)OCO3)c(F)c1N [Compound 53] | 223 to 225 °C
COc1c(C(=O)O)nc(-c2cc(F)c(Cl)cc2F)c(F)c1N [Compound 57] | 153.5 to 155 °C
COc1c(C(=O)O)nc(-c2ccc(C(F)(F)F)c(F)c2F)c(F)c1N [Compound 56] | 133 to 135 °C
COC(=O)c1nc(-c2ccc(Cl)c(OC)c2F)c(F)c(N)c1SC [Compound 94, Methyl 4-amino-6-(4-chloro-2-fluoro-3-methoxyphenyl)-5-fluoro-3-(methylthio)picolinate] | 113 to 117 °C
